Reference: patent US20120270237A9, “METHODS FOR THE IDENTIFICATION OF KINASE INTERACTING MOLECULES AND FOR THE PURIFICATION OF KINASE PROTEINS” (Cellzone AG, priority 2009, published 2012)

Experiments:
Test in all cases: Kinobeads competition binding, HeLa Placenta lysate mix
Set-up in all cases: endogenous in cells
Details in all cases: 10 μM free compound
CaMK2g = CaMK2g (Homo sapiens, UniProt Q13555)
Method: (§1) To one aliquot of cell lysate 10 μM of the free compound (FIG. 3, CZC31326) was added and allowed to bind to proteins in the lysate. Then the affinity matrix with the immobilized compound was added to capture proteins that were not interacting with the previously added free compound. Beads were separated from the lysate and bead bound proteins were eluted in SDS sample buffer and subsequently separated by SDS-Polyacrylamide gel electrophoresis (FIG. 10). Suitable gel bands were cut out and subjected to in-gel proteolytic digestion with trypsin. The second lysate aliquot was processed identically, however no free compound was added (DMSO solvent control). Peptides originating from samples 1 and 2 were labeled with iTRAQ reagents (iTRAQ 114 and iTRAQ 117) and the combined samples were analyzed with a nano-flow liquid chromatography system coupled online to a tandem mass spectrometer (LC-MS/MS) experiment followed by iTRAQ reporter ion quantification in the MS/MS spectra as described in Example 2.

IRAK4 = molecular target: T1, IRAK4 (Homo sapiens, UniProt Q9NWZ3)
T1 sequence (Q9NWZ3 1-460): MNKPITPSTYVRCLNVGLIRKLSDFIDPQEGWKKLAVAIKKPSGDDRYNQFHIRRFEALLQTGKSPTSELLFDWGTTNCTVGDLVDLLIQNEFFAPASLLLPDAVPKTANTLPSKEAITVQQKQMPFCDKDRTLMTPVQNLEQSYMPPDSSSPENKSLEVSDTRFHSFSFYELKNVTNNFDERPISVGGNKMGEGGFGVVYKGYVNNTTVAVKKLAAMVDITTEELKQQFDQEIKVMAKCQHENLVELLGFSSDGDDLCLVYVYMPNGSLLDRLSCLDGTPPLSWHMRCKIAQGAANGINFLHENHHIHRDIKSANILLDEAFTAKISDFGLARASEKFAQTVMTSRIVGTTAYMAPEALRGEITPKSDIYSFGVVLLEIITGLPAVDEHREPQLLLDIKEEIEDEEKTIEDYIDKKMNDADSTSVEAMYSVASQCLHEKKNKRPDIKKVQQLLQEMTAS
Method: as §1

IRE1 = IRE1 (Homo sapiens, UniProt O75460)
Method: as §1

JNK2 = JNK2 (Homo sapiens, UniProt P45984)
Method: as §1

PKD3 = molecular target: T2, PKD3 (Homo sapiens, UniProt O94806)
T2 sequence (O94806 1-890): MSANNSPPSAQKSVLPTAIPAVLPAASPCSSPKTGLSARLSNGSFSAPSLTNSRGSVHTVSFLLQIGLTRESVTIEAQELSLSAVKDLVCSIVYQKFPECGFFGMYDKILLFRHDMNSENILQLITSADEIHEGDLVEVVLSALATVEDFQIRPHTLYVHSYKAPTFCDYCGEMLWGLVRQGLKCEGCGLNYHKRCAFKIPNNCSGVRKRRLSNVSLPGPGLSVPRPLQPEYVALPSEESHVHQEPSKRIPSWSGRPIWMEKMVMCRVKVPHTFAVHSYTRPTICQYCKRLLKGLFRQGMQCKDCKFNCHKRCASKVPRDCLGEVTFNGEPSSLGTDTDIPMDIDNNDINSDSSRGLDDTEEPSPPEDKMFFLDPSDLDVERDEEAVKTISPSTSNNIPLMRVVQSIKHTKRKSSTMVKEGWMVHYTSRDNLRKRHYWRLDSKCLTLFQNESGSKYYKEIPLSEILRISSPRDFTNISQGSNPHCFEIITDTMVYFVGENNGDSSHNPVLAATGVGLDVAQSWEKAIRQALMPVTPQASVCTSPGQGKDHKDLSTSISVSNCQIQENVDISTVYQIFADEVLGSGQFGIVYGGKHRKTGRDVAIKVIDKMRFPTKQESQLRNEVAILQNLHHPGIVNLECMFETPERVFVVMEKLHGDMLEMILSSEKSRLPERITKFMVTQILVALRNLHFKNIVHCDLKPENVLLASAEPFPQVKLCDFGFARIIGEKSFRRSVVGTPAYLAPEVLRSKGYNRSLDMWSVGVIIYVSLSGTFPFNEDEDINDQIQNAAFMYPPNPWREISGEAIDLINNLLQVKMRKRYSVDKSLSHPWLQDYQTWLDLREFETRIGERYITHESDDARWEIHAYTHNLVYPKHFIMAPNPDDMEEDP
Method: as §1

RSK3 = RSK3 (Homo sapiens, UniProt Q15349)
Method: as §1

TBK1 = molecular target: T3, TBK1 (Homo sapiens, UniProt Q9UHD2)
T3 sequence (Q9UHD2 1-729): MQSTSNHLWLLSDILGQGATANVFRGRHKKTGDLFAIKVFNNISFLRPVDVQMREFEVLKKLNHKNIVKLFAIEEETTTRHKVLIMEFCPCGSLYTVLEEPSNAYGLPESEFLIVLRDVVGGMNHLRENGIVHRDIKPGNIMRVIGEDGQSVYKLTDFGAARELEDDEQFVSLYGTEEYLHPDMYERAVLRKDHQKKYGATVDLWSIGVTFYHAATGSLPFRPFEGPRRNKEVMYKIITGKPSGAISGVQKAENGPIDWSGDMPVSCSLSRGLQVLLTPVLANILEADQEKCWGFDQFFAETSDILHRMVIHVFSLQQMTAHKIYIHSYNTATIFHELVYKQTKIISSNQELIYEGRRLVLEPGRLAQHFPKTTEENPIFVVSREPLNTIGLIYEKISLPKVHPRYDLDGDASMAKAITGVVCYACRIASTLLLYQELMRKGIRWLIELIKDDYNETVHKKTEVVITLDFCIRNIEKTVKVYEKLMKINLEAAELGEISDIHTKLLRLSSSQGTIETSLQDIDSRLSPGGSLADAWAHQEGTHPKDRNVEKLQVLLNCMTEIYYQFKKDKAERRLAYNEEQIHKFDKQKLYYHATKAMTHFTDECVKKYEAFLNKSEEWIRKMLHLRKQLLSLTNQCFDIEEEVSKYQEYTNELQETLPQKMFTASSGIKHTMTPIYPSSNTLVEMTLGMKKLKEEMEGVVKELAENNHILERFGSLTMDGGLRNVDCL
Method: as §1

TYK2 = TYK2 (Homo sapiens, UniProt P29597)
Method: as §1

Chain of JNK2 (P45984 whole entry): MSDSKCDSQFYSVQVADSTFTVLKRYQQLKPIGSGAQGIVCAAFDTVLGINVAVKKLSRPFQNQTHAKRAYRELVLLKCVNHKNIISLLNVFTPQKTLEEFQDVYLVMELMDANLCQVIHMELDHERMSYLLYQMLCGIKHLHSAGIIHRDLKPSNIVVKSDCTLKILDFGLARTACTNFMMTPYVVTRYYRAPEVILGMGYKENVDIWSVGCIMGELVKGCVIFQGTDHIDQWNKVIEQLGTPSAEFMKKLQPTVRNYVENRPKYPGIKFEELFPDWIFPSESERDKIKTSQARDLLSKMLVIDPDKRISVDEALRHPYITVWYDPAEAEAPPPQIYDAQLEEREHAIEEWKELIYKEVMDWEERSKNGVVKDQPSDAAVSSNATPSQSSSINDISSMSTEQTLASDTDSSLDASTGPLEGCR
Chain of CaMK2g (Q13555 whole entry): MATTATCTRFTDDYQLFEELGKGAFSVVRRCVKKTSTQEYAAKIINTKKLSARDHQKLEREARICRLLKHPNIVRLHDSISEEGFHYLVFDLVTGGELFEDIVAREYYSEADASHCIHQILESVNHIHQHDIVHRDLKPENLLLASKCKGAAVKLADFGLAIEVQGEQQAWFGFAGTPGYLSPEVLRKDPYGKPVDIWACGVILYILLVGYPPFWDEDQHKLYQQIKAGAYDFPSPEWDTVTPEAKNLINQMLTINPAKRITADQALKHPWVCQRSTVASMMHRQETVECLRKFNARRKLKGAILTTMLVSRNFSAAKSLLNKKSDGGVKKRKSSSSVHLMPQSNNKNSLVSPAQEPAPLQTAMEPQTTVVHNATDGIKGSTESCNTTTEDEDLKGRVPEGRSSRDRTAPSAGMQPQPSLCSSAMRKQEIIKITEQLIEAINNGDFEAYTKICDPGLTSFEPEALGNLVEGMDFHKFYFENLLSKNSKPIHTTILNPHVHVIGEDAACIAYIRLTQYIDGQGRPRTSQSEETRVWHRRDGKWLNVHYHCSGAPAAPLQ
Chain of TYK2 (P29597 whole entry): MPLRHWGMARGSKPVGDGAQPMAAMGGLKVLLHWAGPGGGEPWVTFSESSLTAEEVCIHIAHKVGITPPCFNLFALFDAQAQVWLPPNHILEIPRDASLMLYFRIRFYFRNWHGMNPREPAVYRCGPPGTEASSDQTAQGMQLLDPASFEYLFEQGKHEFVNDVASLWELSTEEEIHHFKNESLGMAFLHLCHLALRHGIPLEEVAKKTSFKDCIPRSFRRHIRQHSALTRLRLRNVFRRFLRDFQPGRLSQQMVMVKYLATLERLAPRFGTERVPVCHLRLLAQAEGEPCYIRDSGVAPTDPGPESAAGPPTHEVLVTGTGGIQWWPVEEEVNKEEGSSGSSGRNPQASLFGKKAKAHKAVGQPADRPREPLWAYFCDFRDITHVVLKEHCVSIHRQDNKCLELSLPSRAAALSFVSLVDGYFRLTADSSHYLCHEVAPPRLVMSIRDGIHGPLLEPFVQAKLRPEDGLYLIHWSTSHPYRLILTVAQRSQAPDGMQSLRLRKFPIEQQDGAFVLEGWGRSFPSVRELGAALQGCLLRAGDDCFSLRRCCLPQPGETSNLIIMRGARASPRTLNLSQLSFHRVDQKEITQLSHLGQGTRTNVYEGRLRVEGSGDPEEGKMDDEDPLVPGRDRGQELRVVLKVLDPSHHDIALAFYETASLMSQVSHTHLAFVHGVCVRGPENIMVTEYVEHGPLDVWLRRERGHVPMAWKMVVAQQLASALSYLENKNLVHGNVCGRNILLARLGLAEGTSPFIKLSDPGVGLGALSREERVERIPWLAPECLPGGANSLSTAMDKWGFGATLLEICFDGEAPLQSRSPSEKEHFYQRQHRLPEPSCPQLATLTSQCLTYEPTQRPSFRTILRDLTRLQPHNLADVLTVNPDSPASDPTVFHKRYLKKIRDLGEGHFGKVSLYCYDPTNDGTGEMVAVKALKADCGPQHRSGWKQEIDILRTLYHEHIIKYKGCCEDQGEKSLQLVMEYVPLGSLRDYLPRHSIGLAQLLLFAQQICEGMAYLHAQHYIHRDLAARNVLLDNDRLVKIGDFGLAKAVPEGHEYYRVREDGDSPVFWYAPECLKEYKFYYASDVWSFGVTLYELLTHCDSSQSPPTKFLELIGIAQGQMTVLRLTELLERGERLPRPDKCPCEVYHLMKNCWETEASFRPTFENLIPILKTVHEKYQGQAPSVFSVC
Chain of RSK3 (Q15349 whole entry): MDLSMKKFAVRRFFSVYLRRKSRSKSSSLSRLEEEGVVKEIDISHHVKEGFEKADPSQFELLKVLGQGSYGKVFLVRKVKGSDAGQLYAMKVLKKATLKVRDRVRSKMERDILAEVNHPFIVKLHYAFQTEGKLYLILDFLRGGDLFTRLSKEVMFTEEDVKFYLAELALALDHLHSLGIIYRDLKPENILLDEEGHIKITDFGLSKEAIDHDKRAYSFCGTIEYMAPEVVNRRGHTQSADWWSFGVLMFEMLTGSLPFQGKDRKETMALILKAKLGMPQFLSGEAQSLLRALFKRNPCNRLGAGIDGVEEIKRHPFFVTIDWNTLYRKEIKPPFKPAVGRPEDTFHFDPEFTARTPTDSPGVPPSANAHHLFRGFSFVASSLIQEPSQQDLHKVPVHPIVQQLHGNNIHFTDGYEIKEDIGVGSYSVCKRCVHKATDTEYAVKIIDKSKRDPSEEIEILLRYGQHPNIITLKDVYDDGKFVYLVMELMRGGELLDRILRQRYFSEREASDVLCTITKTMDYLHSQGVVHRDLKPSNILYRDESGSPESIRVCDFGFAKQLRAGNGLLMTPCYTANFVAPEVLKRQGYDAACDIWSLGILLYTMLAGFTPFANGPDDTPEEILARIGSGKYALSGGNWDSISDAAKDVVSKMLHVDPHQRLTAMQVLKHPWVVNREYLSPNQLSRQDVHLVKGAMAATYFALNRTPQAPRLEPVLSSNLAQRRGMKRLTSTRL
Chain of IRE1 (O75460 19-977): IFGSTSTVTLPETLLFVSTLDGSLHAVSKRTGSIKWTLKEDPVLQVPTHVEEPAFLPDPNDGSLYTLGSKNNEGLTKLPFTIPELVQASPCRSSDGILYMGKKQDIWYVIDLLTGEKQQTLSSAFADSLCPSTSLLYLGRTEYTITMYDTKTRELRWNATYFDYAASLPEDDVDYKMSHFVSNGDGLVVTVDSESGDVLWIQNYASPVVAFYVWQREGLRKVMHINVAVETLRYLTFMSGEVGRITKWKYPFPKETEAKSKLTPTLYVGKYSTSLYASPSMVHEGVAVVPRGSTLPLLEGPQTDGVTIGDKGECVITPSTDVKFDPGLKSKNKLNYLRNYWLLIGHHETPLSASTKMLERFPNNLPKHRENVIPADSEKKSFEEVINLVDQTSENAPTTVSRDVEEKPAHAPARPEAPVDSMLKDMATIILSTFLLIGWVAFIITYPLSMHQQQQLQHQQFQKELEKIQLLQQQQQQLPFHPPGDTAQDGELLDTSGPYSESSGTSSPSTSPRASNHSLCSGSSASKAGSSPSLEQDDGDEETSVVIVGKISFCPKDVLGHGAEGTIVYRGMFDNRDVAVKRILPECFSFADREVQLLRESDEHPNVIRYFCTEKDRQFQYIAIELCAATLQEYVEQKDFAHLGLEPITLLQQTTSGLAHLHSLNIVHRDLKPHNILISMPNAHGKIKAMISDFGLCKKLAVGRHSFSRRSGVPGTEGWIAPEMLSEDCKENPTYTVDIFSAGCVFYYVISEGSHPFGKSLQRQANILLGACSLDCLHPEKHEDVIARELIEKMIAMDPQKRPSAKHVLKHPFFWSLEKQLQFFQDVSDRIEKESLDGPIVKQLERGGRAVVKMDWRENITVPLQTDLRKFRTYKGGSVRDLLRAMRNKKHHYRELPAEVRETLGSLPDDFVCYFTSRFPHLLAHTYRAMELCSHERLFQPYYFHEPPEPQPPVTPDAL

- inhibition at 10 µM (CaMK2g): 84.8%
- Competition % (IRAK4): 93.8%
- inhibition at 10 µM (IRE1): 91.8%
- Competition % (JNK2): 83.1%
- inhibition at 10 µM (PKD3): 95.7%
- inhibition at 10 µM (RSK3): 94.8%
- inhibition at 10 µM (TBK1): 93.8%
- Competition % (TYK2): 93.8%
SMILES: CS(=O)(=O)Nc1ccccc1Nc1nc(Nc2cccc(OCCN)c2)ncc1Cl [CZC31326, N-(2-(2-(3-(2-aminoethoxy)phenylamino)-5-chloropyrimidin-4-ylamino)phenyl)methanesulfonamide]
